In data set [1] the test system is acute respiratory distress syndrome in patients with Covid-19. The note with it: ten treated Covid-19 patients.
For data set [2] the following is noted: patients, pharmaceutical composition. The text has this: The peptide identified as SEQ ID NO: 1 is obtained by chemical synthesis. Through experiments such as those described in the present invention, those immunological mechanisms induced by the peptide that contribute in the control of hyperinflammation can be evaluated.

This passage reports symptoms of immunosuppression, serious adverse events and tolerability results from US20230190866A1, “PEPTIDE FOR THE TREATMENT OF CYTOKINE STORM SYNDROME” (priority 2020, published 2023).

Ends that are not written are not given here.

In the case of “SIDLKDKYKNIGAKLVQLVANNTNEEA [peptide identified as SEQ ID NO: 1]”, the symptoms of immunosuppression result in data set [1] was “did not present any symptoms of immunosuppression”. Also, in data set [2], the serious adverse events entry was “No serious adverse events were identified” and the tolerability entry is given as “well tolerated”.
